The values that follow come from patent US9856279B2 (AGIOS PHARMACEUTICALS, INC, priority 2011, dated 2018).

The target in this assay is IDH1 R132H (Homo sapiens, UniProt O75874, R132H). Kind of assay: Assay for IDH1 R132H inhibitors (NADPH/aKG, resazurin detection). Type of assay: biochemical. Particulars: Table 3; enzyme assay, 50 minutes at room temperature; read-out: IC50 (IDH1 R132H Inhibition). As for the experimental part: Assays were conducted in a volume of 76 μl assay buffer (150 mM NaCl, 10 mM MgCl2, 20 mM Tris pH 7.5, 0.03% bovine serum albumin) as follows in a standard 384-well plate: To 25 ul of substrate mix (8 uM NADPH, 2 mM aKG), 1 μl of test compound was added in DMSO. The plate was centrifuged briefly, and then 25 μl of enzyme mix was added (0.2 μg/ml IDH1 R132H) followed by a brief centrifugation and shake at 100 RPM. The reaction was incubated for 50 minutes at room temperature, then 25 μl of detection mix (30 μM resazurin, […]) was added and the mixture further incubated for 5 minutes at room temperature. The conversion of resazurin to resorufin was detected by fluorescent spectroscopy at Ex544 Em590 c/o 590.
For orientation: Resazurin is reduced to fluorescent resorufin, in cell work by metabolically active cells.

One may read the IC50 as the concentration that gives 50% inhibition.

Sequence of IDH1 R132H (O75874 whole entry R132H): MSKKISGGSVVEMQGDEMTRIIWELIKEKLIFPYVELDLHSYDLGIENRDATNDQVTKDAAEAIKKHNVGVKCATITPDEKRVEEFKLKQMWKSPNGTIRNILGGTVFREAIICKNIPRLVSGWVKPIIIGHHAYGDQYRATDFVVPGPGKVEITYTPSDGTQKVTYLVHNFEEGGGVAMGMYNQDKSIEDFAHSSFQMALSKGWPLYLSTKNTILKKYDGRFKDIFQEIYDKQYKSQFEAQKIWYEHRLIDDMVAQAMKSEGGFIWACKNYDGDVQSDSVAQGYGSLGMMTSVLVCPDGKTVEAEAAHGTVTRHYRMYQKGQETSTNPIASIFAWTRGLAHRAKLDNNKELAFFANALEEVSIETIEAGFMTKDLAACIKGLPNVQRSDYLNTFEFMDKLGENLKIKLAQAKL

In the case of `CC(C)c1nc(N2CCN(C(=O)Cc3ccccc3)C(C)C2)c(C#N)cc1-c1ccccc1` (stereo in doubt) [Compound 145, (R)-6-isopropyl-2-(3-methyl-4-(2-phenylacetyl)piperazin-1-yl)-5-phenylnicotinonitrile], the IC50 lay within 1 to 5 µM.
Next, `CC(C)c1cc(-c2ccccc2)c(C#N)c(N2CCN(C(=O)c3ccccc3)CC2)n1` [Compound 100, 2-(4-benzoylpiperazin-1-yl)-6-isopropyl-4-phenylnicotinonitrile]: 5 to 15 µM; `CC(C)c1cc(-c2ccccc2)c(C#N)c(N2C[C@@H](C)N(C(=O)c3ccccc3)[C@@H](C)C2)n1` [Compound 101, 2-((3S,5R)-4-benzoyl-3,5-dimethylpiperazin-1-yl)-6-isopropyl-4-phenylnicotinonitrile]: 1 to 5 µM; `CC(C)c1cc(-c2ccccc2)c(C#N)c(N2C[C@@H](C)N(C(=O)c3ccco3)[C@@H](C)C2)n1` [Compound 102, 2-((3S,5R)-4-(furan-2-carbonyl)-3,5-dimethylpiperazin-4-yl)-6-isopropyl-4-phenylnicotinonitrile]: 1 to 5 µM.
As for `CC(C)c1cc(-c2ccccc2)nc(N2CCN(C(=O)c3ccco3)CC2)c1C#N` [Compound 103, 2-(4-(furan-2-carbonyl)piperazin-1-yl)-4-isopropyl-6-phenylnicotinonitrile], the figure is 5 to 15 µM.
For `COc1ccccc1-c1cc(C(C)C)nc(N2CCN(C(=O)c3ccco3)CC2)c1C#N` [Compound 104, 2-(4-(furan-2-carbonyl)piperazin-1-yl)-6-isopropyl-4-(2-methoxyphenyl)nicotinonitrile], the IC50 lay in the range of 5 to 15 µM.
Regarding `COc1ccccc1-c1cc(C(C)C)nc(N2CCN(C(=O)c3ccccc3)CC2)c1C#N` [Compound 105, 2-(4-benzoylpiperazin-1-yl)-6-isopropyl-4-(2-methoxyphenyl)nicotinonitrile], the IC50 is 1 to 5 µM.
As for `COc1ccccc1-c1cc(C(C)C)nc(N2CCN(C(=O)c3c[nH]c4ccccc34)CC2)c1C#N` [Compound 106], the figure is 5 to 15 µM.
As for `CC(C)c1cc(-c2ccccc2)c(C#N)c(N2CCN(C(=O)c3ccco3)C(C)C2)n1` (stereo not shown) [Compound 107, 2-(4-(furan-2-carbonyl)-3-methylpiperazin-1-yl)-6-isopropyl-4-phenylnicotinonitrile], the figure is 1 to 5 µM; as for `CC(C)c1cc(-c2ccccc2)nc(N2CCN(C(=O)c3ccco3)C(C)C2)c1C#N` (stereo not shown) [Compound 108, 2-(4-(furan-2-carbonyl)-3-methylpiperazin-1-yl)-4-isopropyl-6-phenylnicotinonitrile], 5 to 15 µM.
Next, `CC(C)c1nc(N2CCN(C(=O)c3ccco3)CC2)c(C#N)cc1-c1ccccc1` [Compound 109, 2-(4-(furan-2-carbonyl)piperazin-1-yl)-6-isopropyl-5-phenylnicotinonitrile]: 5 to 15 µM; `CC(C)c1cc(-c2ccccc2)c(C#N)c(N2CCN(C(=O)c3ccoc3)C(C)C2)n1` (stereo not shown) [Compound 110, 2-(4-(furan-3-carbonyl)-3-methylpiperazin-1-yl)-6-isopropyl-4-phenylnicotinonitrile]: 1 to 5 µM; `CC(C)c1cc(-c2ccccc2)nc(N2CCN(C(=O)c3ccoc3)C(C)C2)c1C#N` (stereo not shown) [Compound 111]: 5 to 15 µM.
Turning to `COc1ccccc1-c1cc(C(C)C)nc(N2CCN(C(=O)c3ccoc3)CC2)c1C#N` [Compound 113, 2-(4-(furan-3-carbonyl)piperazin-1-yl)-6-isopropyl-4-(2-methoxyphenyl)nicotinonitrile], the IC50 lay within 5 to 15 µM.
As for `CC(C)c1cc(-c2cccc(F)c2)c(C#N)c(N2CCN(C(=O)c3ccco3)CC2)n1` [Compound 114, 4-(3-fluorophenyl)-2-(4-(furan-2-carbonyl)piperazin-1-yl)-6-isopropylnicotinonitrile], the figure is 1 to 5 µM; as for `CC(C)c1cc(-c2cccc(F)c2)c(C#N)c(N2CCN(C(=O)c3ccoc3)CC2)n1` [Compound 115, 4-(3-fluorophenyl)-2-(4-(furan-3-carbonyl)piperazin-1-yl)-6-isopropylnicotinonitrile], 1 to 5 µM.
